# Patent publication US10201588B2, “Materials and methods of treating dyslipidemia” (UNIVERSITY OF MIAMI, priority 2017, dated 2019)
# Marks after values point to notes of the source that are not given here.
# Assays:
# [1] = tested on: T1D rats; assay: Plasma metabolites, lipids, glucose regulatory hormones and chemokines in T1D rats; type: in vivo, rat
# Description: T1 Diabetes Animal Model. Wistar rats (male, 200-250 g, Envigo RMS, Inc.) were rendered diabetic with a single dose of streptozotocin (STZ, 50 mg/kg body weight, i.p.). Once rats became hyperglycemic (>350 mg/dl plasma glucose, usually 3-4 days post STZ injection), they were divided into two groups, with and without treatment with the GHRH antagonist MIA-602 ([…], s.c.) administered three times a week for 14 weeks after establishment of diabetes. Untreated animals received vehicle alone with the same regimen. Upon completion of the 14 weeks period, animals were placed in metabolic cages for 3 days for adaptation, allowing them free movement, water and food intake. During the entire experiment, rats were fed regular rat chow (Teklad Diet, Madison, Wis.) and received water ad libitum. On the third day in the metabolic cages, food and water intake was monitored for a period of 24 hours. 24-hour urine specimens were also collected, centrifuged at 400×g for 5 minutes for particulate removal, aliquoted and stored at −80° C. Animals were then euthanized in the morning around 10 am in a fed state, under deep anesthesia with isoflurane, by exsanguination, followed by removal of vital organs. Plasma was separated from heparinized blood samples, aliquoted and saved at −80° C. for further analysis. Rats were handled according to high ethical and scientific standards for laboratory animals, and our protocol was reviewed and approved by the Institutional Animal Care and Use Committee at the Medical College of Georgia at Augusta University.
# (§1) Determination of metabolites. ApoB-48 lipoprotein was measured in plasma samples from rats and in culture medium supernatant from IEC by the use of a commercial ELISA kit (MyBioSource). The VLDL/LDL Cholesterol Assay kit (Abcam), the Total Cholesterol Assay kit (Wako) and the PicoProbe Triglyceride Quantification Assay Kit (Abcam) were used for analysis of VLDL/LDL fractions, total cholesterol and triglycerides in plasma samples. Albumin and creatinine levels in urine were analyzed by the use of Nephrat II and Creatinine Companion (Exocell) assay kits, respectively. Chemokines and glucose regulatory hormones (MCP-1, insulin, amylin, GIP and glucagon) were analyzed using the MILLIPLEX MAP Rat Metabolic Hormone Magnetic Bead Panel—Metabolism Multiplex Assay (RMHMAG-84K, EMD Millipore). Levels of growth hormone (GH) were assay with Rat Growth Hormone ELISA kit (EMD Millipore). Glucose levels were measured in blood by AlphaTRAK Blood Glucose Monitoring System.
# [2] = tested on: GHRH receptor; assay: Western blot of GHRH receptor expression in jejunum-ileum of T1D rats; type: in vivo, rat; conditions: diabetic rats, MIA-602 25 μg/kg s.c. three times a week for fourteen weeks, vs vehicle diabetic
# Description: (§2) T1 Diabetes Animal Model. Wistar rats (male, 200-250 g, Envigo RMS, Inc.) were rendered diabetic with a single dose of streptozotocin (STZ, 50 mg/kg body weight, i.p.). Once rats became hyperglycemic (>350 mg/dl plasma glucose, usually 3-4 days post STZ injection), they were divided into two groups, with and without treatment with the GHRH antagonist MIA-602 ([…], s.c.) administered three times a week for 14 weeks after establishment of diabetes. Untreated animals received vehicle alone with the same regimen. Upon completion of the 14 weeks period, animals were placed in metabolic cages for 3 days for adaptation, allowing them free movement, water and food intake. […] On the third day in the metabolic cages, food and water intake was monitored for a period of 24 hours. […]
# (§3) The entire small intestine was removed and its length was measured from the pylorus to the ileocecal junction. […] Proteins were detected with the following antibodies: GHRH receptor (Abcam), GLP-1 receptor (Santa Cruz Inc), α-sma (Sigma-Aldrich), or β-actin (Sigma-Aldrich). Data obtained from Western blots were processed by ImageJ quantification software.
# T1D was induced in Wistar rats (male, 320-350 g) with intraperitoneal injection of a single dose of STZ (50 mg/kg body weight). […] The entire small intestine was removed from rats, and its length was measured from the pylorus to the ileocecal junction. […]
# [3] = tested on: GLP-1 receptor; assay: Western blot of GLP-1 receptor expression in T1D rats; type: in vivo, rat; conditions: MIA-602 treatment vs augmented expression in T1D, FIG. 3A
# Description: (§4) T1 Diabetes Animal Model. Wistar rats (male, 200-250 g, Envigo RMS, Inc.) were rendered diabetic with a single dose of streptozotocin (STZ, 50 mg/kg body weight, i.p.). Once rats became hyperglycemic (>350 mg/dl plasma glucose, usually 3-4 days post STZ injection), they were divided into two groups, with and without treatment with the GHRH antagonist MIA-602 ([…], s.c.) administered three times a week for 14 weeks after establishment of diabetes. Untreated animals received vehicle alone with the same regimen. Upon completion of the 14 weeks period, animals were placed in metabolic cages for 3 days for adaptation, allowing them free movement, water and food intake. During the entire experiment, rats were fed regular rat chow (Teklad Diet, Madison, Wis.) and received water ad libitum. On the third day in the metabolic cages, food and water intake was monitored for a period of 24 hours. 24-hour urine specimens were also collected, centrifuged at 400×g for 5 minutes for particulate removal, aliquoted and stored at −80° C. […]
# as §3
# [4] = tested on: Rat small intestinal epithelial cells (IEC-6); assay: ApoB-48 lipoprotein secretion by cultured intestinal epithelial cells challenged with oleic acid; type: cell-based
# Description: Cell culture. Rat small intestinal epithelial cells (IEC-6, ATCC® CRL-1592™) were grown in 6-well plates in DMEM medium supplemented with 10% fetal bovine serum (heat inactivated FBS, Gibco/Invitrogen), 1 mM sodium pyruvate, 2 mM L-alanyl-L-glutamine (GLUTAMAX I), 5 μg/ml insulin (Sigma-Aldrich), 100 U/ml penicillin and 100 μg/ml streptomycin at 37° C. in a 5% CO2 atmosphere. For all experiments, cells up to passage 6 were used for all experiments.
# Peptide Analogs Preparation. GHRH agonist JI-34, and GHRH antagonist MIA-602 were synthesized in the laboratory of A.V.S. (23, 24) and dissolved initially in DMSO before dilution with incubation medium. The final concentration of DMSO in the medium never exceeded 0.1% v/v.
# Assessment of ApoB-48 lipoprotein secretion by cultured intestinal epithelial cells. Upon confluence, cells were washed twice with serum-free DMEM medium, upon which fresh serum-free medium, supplemented with or without 5 μg/ml insulin was added. After 2 hrs of equilibration, cells were pre-treated for 1 hour with the GHRH receptor agonist JI-34 (1 μM, dissolved in DMSO), while control cells received vehicle alone, followed by addition of the GLP-1 receptor agonist (Exendin-4, 10 nM, Sigma-Aldrich). After 3 hrs, cells were treated with 0.5 mM oleic acid (OA) complexed to BSA (Sigma-Aldrich) for 3 hrs, to allow for lipid loading into ApoB-48 lipoproteins. Additional cells were pre-incubated or not for 1 h with the GLP-1 receptor antagonist Exendin 9-39 (100 nM, Sigma-Aldrich), or the GHRH antagonist MIA-602 (1 μM, dissolved in DMSO). Upon completion of treatment, medium was collected, centrifuged at 1,000×g for 3 minutes, and saved at −80° C. for further analysis.
# as §1
# [5] = tested on: T1D rats; assay: Kidney damage in T1D rats: proteinuria (albumin/creatinine ratio) and α-sma expression in kidney cortex; type: in vivo, rat; conditions: MIA-602 treatment vs vehicle-treated T1D
# Description: as §2
# Determination of metabolites. ApoB-48 lipoprotein was measured in plasma samples from rats and in culture medium supernatant from IEC by the use of a commercial ELISA kit (MyBioSource). The VLDL/LDL Cholesterol Assay kit (Abcam), the Total Cholesterol Assay kit (Wako) and the PicoProbe Triglyceride Quantification Assay Kit (Abcam) were used for analysis of VLDL/LDL fractions, total cholesterol and triglycerides in plasma samples. Albumin and creatinine levels in urine were analyzed by the use of Nephrat II and Creatinine Companion (Exocell) assay kits, respectively. […]
# [6] = tested on: thoracic aortas of T1D rats; assay: Vasodilation of thoracic aortic rings from T1D rats (acetylcholine, sodium nitroprusside); type: in vivo, rat; conditions: three groups of animals compared, FIG. 5E
# Description: FIG. 5A is a graph showing the measurement of proteinuria in urine from control, T1D and MIA-602/T1D rats, expressed as the albumin/creatinine ratio (n=5 per group). FIG. 5B: Upper panel: representative immunoblot of α-smooth muscle actin (α-sma) expression (a marker of fibroblast activation and renal fibrosis) in homogenates of kidney cortex.
# Therefore, MCP-1 levels in the serum were analyzed. […] Both dyslipidemia and increased MCP-1 plasma levels represent risk factors for vascular endothelial dysfunction. […] Responses to the endothelial-independent vasodilator sodium nitroprusside (SNP) were similar amongst the three groups of animals (FIG. 5E).
# [7] = tested on: Dipeptidyl-Peptidase 4 (DPP4); assay: Plasma DPP4 activity in T1D rats (ELISA kit); type: in vivo, rat; conditions: non-fasting state, MIA-602 treatment, FIG. 6
# Description: Treatment with MIA-602 blunted this effect. DPP4 activity values were measured in plasma obtained from rats in the non-fasting state, by the use of a commercial ELISA kit (MyBioSource).
# as §4, with “C. Animals were then euthanized in the morning around 10 am in a fed state, under deep anesthesia with isoflurane, by exsanguination, followed by removal of vital organs.” for “C.”
# [8] = tested on: lung microvascular endothelial cells; conditions: reference (24); cited from earlier work
substance,measurement,setting,value
Phac-Ada-Ty^1-D-Arg^2-Asp^3-Ala^4-Ile^5-Phe(F)5^6-Thr^7-Ala^8-Har^9-Tyr(me)^10-His^11-Orn^12-Val^13-Leu^14-Abu^15-Glu^16-Leu^17-Ser^18-Ala^19-His^20-Orn^21-Leu^22-Leu^23-Glu^24-Asp^25-Ile^26-Nle^27-D-Arg^28-Har^29-NH2 [MIA-602],Plasma levels of apolipoprotein B-48 (ApoB-48),"[1]; T1D rats treated with MIA-602, FIG. 2D",blunted
same,Plasma levels of GIP,"[1]; T1D rats treated with MIA-602, not significant vs vehicle-treated diabetic (85.7±37.5)",46.7 ± 9.6 pg/mL
same,Lipemic plasma (visual),"[1]; T1D rats treated with MIA-602 vs vehicle, FIG. 2A",significant reduction
same,Total cholesterol levels in plasma,"[1]; T1D rats treated with MIA-602 vs vehicle-treated STZ diabetic animals, FIG. 2B",lower
same,VLDL/LDL-cholesterol in plasma,"[1]; T1D rats treated with MIA-602 vs vehicle-treated STZ diabetic animals, FIG. 2C",lower
same,Plasma glucagon,"[1]; T1D rats, MIA-602 25 μg/kg s.c. three times a week for 14 weeks, p < 0.02 vs Diabetes",55.9 ± 34.3^c pg/ml
same,Plasma GLP-1,"[1]; T1D rats, MIA-602 25 μg/kg s.c. three times a week for 14 weeks, p < 0.05 vs Diabetes",48.7 ± 25.2^e pg/ml
same,MCP-1 serum levels,"[1]; T1D rats, MIA-602 treatment, FIG. 5C",reduced
same,Plasma triglyceride levels,"[1]; T1D rats, MIA-602 treatment, p<0.01 vs. STZ (89.3±4.2), n=6 per group",82.3 ± 2.8 mg/dL
same,Plasma glucose,"[1]; T1D rats, non-fasting, MIA-602 25 μg/kg s.c. three times a week for 14 weeks, no insulin",603 ± 137.4^b mg/dl
same,Blunting of GHRH receptor expression in jejunum-ileum (Western blot densitometry),[2],approximately 5 fold
same,GLP-1 receptor expression in distal small intestine and liver,[3],unaffected
same,ApoB-48 released into medium,"[4]; oleic acid (0.5 mM)-treated IEC, no insulin, agent alone at 1 μM, no GLP-1 agonist, oleic acid alone 6.67±0.26",3.43 ± 0.15 µg/mL
same,ApoB-48 released into medium,"[4]; oleic acid-treated IEC, MIA-602 (1 μM) in the presence of JI-34 and exendin-4",4.47 ± 0.46 µg/mL
same,Proteinuria (albumin/creatinine ratio),[5]; FIG. 5A,reduced
same,α-sma expression in kidney cortex,"[5]; Western blot, FIG. 5B",reduced
same,Responses to the endothelial-independent vasodilator sodium nitroprusside (SNP),[6],similar
same,Plasma Dipeptidyl-Peptidase 4 (DPP4) activity,[7],reduced
same,Barrier function,[8],slightly decreased
exendin 9-39,ApoB-48 released into medium,"[4]; oleic acid-treated IEC, exendin 9-39 (100 nM) together with MIA-602 (1 μM), MIA-602 alone 3.43±0.15",7.56 ± 0.53 µg/mL
same,ApoB-48 released into medium,"[4]; oleic acid-treated IEC, pretreatment 100 nM, then exendin-4 (10 nM), exendin-4 alone 4.44±0.36",8.78 ± 0.34 µg/mL
exendin-4: GLP-1 receptor agonist (Sigma-Aldrich),ApoB-48 released into medium,"[4]; oleic acid (0.5 mM)-treated IEC, no insulin, agent alone at 10 nM, oleic acid alone 6.67±0.26, medium alone 3.48±0.98",4.44 ± 0.36 µg/mL
